What is called melting point is the temperature, or range, at which the solid turns liquid.

The molecule `Nc1cccc2cc(-c3nccs3)[nH]c12` returned a melting point of 173 to 174 °C.

The molecule `CC(C)(C)C1=CC(=CC#N)C=C(C(C)(C)C)C1=O` registered a melting point of 110 to 111 °C.

Molecule `O=c1cc(-c2ccc(O)c(F)c2)oc2ccccc12` showed a melting point of 275 to 276 °C.

`CC(n1cnc2cc(-c3ccc(C4=NCCO4)cc3)sc2c1=O)C(O)(Cn1cncn1)c1ccc(F)cc1F` (configuration not stated) had a melting point of 235 to 236 °C.

In turn, `CC(=O)Nc1c(OC(C)=O)cc(C)cc1[N+](=O)[O-]` showed a melting point of 163 to 165 °C.

`Cc1nccc2c3ccc(OCc4ccccc4)cc3n(Cc3ccccc3)c12` yielded a melting point of 156 °C.

Molecule `Cc1c(C)c2c(c(C)c1O)CCC(C)(C(=S)Nc1cc(C(C)(C)C)c(O)c(C(C)(C)C)c1)O2` (configuration not stated) had a melting point of 172 to 174 °C.

For `CN1CCN(CCCNc2ncc3cc(-c4c(Cl)cccc4Cl)c(=O)n(C)c3n2)CC1`, the melting point was in the range of 170 to 172 °C.

Take `O=C1c2c(OCc3ccccc3)c(OCc3ccccc3)cc(OCc3ccccc3)c2-c2nn(CCNCCO)c3ccc(NCCNCCO)c1c23`: the melting point is 186 to 188 °C.

`CCOC(=O)c1c(CCc2ccc(C(F)(F)F)cc2)nc2c(c1-c1ccc(C(=O)N[C@@H](C)c3ccncc3)cc1)C(=O)N1CCC[C@@H]21` came in with a melting point of 158 to 160 °C.

`CCNC(=O)c1ccc(F)cc1` showed a melting point of 73.2 to 76.3 °C.

`CCCc1ccc(-n2ncc(C#N)c2N(C(C)=O)C(C)=O)c(Cl)c1` yielded a melting point of 110 to 112 °C.

`Cc1ccc(C=CC(=O)NCCCCN2CCN(C(c3ccccc3)c3ccccc3)CC2)cn1` showed a melting point of 129 to 131 °C.

Molecule `Cn1nc2c(N)nc3ccccc3c2c1CC1(F)CCOCC1` registered a melting point of 252 to 254 °C.

On to `C=Cc1ccc(C=CC#N)cc1`, for which the melting point was found to be 45.8 °C.

Regarding `COC(=O)c1cc(Cl)cc(C(F)(F)F)n1`, the melting point is 62 to 63 °C.

Consider `CC(C)(C)OC(=O)N1CCCCN1C(=O)OCc1ccccc1`, for which the melting point was 71 to 72 °C.

In turn, `CC(C)c1cc2nc(N)sc2cc1SC1=C(O)C[C@@](CCc2ccccc2)(C(C)C)OC1=O` registered a melting point of 197 to 199 °C.

As for `CC(=O)Nc1ccc(C(=O)Nc2ccc(O)cc2)cc1`, the melting point is 275 to 277 °C.

Molecule `O=C(c1cnc(Cc2ccc(Cl)cc2)[nH]1)N1CCC(c2ccccc2)(c2ccccc2)CC1` gave a melting point of 105 to 106 °C.

On to `COC(=O)c1sccc1NC(=O)CC#N`, for which the melting point is 146 °C.

Regarding `CCc1nnc(-c2ccc(-c3ccccc3)nc2)n1-c1cccc(C(N)=O)c1C`, the melting point fell in the range of 162 to 163 °C.

On to `CCCC(=O)c1cc(C(=O)O)c(N)cc1C`, for which the melting point was in the range of 184 to 186 °C.

The molecule `CC(=O)OC[C@H](Cc1ccccc1)NC(=O)[C@H](Cc1ccccc1)NC(=O)c1ccccc1` gave a melting point of 186 to 187 °C.

`CC(C)n1nc(-c2sc(NC(=O)c3cccc(F)c3)nc2-c2ccccc2)ccc1=O` returned a melting point of 183 to 184 °C.

Take `CCCc1cc(C#N)sc1-c1ccc2c(c1)C(C)(C)OC(=O)N2`: the melting point was 160 to 162 °C.

Regarding `CC(C)Cn1cnc2c(N)nc3ccc(CCc4ccccc4)cc3c21`, the melting point is 175 to 178 °C.

Consider `Cc1[nH]c(C(C)(C)C)nc1CO`, for which the melting point is 196 °C.

As for `CC1CCN(c2c(F)cc3c(=O)c(C(=O)O)cn4c3c2CCC4C)CC1` (configuration not stated), the melting point lay within 266 to 268 °C.

`O=Cc1cccc(-c2cc3c4c(ccn4C(=O)CNC3)c2)c1` returned a melting point of 192 to 194 °C.

`Nc1nnc(-c2ccc3ncn(-c4ccc(OC(F)(F)F)c(Cl)c4)c3c2)o1` yielded a melting point of 238 to 239 °C.

As to `COc1ccc(-c2cnc[nH]c2=O)cc1OC`, the melting point fell in the range of 205 to 206 °C.

Consider `O=C1CNC(=O)N1Cc1ccccc1`, for which the melting point fell in the range of 139 to 140 °C.

In the case of `C=CCOC(=O)Nc1nsc(N)n1`, the melting point was in the range of 159 to 161 °C.

As for `CN(C)c1c(Cl)nc(-c2ccccc2)nc1Cl`, the melting point was in the range of 49 to 50 °C.

Molecule `O=C(O)c1cc2c(C(F)(F)F)c(F)ccc2[nH]1` came in with a melting point of 204 to 210 °C.

Regarding `CCOC(=O)c1ccc(NS(C)(=O)=O)c([N+](=O)[O-])c1`, the melting point was 124 °C.

Take `CNC(=O)c1ccccc1Nc1nc(Nc2ccc3c(c2)COCCN3C)ncc1Cl`: the melting point was in the range of 216 to 217 °C.

`CCOC(=O)C(C)NNc1cc(F)cc(F)c1` (configuration not stated) registered a melting point of 139 to 141 °C.

Molecule `Cc1cc(=O)n2cccc(OCc3ccc(Cl)cc3Br)c2n1` yielded a melting point of 182 to 184 °C.

On to `O=C(C=P(c1ccccc1)(c1ccccc1)c1ccccc1)CSc1ccccc1`, for which the melting point is 132 to 134 °C.

`NC(=O)C(F)(I)C(F)(F)F` (configuration not stated) had a melting point of 75 to 77 °C.

With `CCCCCCCCCCCCCCc1ccc(S(=O)(=O)Nc2nncs2)cc1`, the melting point was 116 to 117 °C.

As to `CC(C)N1C(=O)C2Cc3nc[nH]c3CN2C1=O` (configuration not stated), the melting point fell in the range of 149 to 157 °C.

Consider `O=C(O)c1ccc(CN2CCC(CCCC(=O)c3ccc4c(c3)CCN(Cc3ccccc3)CC4)CC2)cc1`, for which the melting point fell in the range of 165 to 176 °C.

Molecule `CONCc1cc(-n2c(=O)cc(C(F)(F)F)n(C)c2=O)ccc1Cl` yielded a melting point of 83 to 85 °C.

Molecule `FC(F)(F)c1ccc(-c2nnc(-c3cccc(C4OCCO4)c3)o2)cc1` yielded a melting point of 107 to 108 °C.

In turn, `CC(=O)c1ccc(-c2ccnc(Nc3ccc4c(c3)OCCO4)c2)cc1` registered a melting point of 178 to 180 °C.

For the molecule `c1cnc2[nH]cc(CN3CCN(c4ccc5c(c4)OCO5)CC3)c2c1`, the melting point lay within 196 to 199 °C.

Consider `CCn1cc(C(=O)O)c(=O)cc1-c1ccc2c(c1)OCO2`, for which the melting point was 269 to 270 °C.

Regarding `Cc1cc(C)c(Nc2nc(C)ccc2S(=O)(=O)c2ccc(OCc3c(C)cccc3C)cc2)c(C)c1`, the melting point lay in the range of 136 to 138 °C.

With `CCN(C)c1nc2sc3c(NCCCN4CCCC4=O)ncnc3c2c2c1CCC(C)(C)C2`, the melting point fell in the range of 166 to 167 °C.

The molecule `CC(C)c1c(O)ccc2cnc(Nc3ccccc3)nc12` displayed a melting point of 103 to 104 °C.

For the molecule `Cc1ccc(-c2ccnc3c(C(=O)c4cccs4)cnn23)cc1NC(=O)c1ccccc1`, the melting point was 216 to 218 °C.

`COc1c(OC(C)=O)ccc(C=O)c1[N+](=O)[O-]` returned a melting point of 84 to 86 °C.

`Cc1noc(NS(=O)(=O)c2ccccc2-c2ccc(-c3ncco3)cc2CC(=O)NC(C)(C)C)c1C` displayed a melting point of 117 to 123 °C.

For the molecule `CCOC(CN1C(=O)C2=C(c3ccc(Br)cc3)N(CC(OCC)OCC)C(=O)C2=C1c1ccc(Br)cc1)OCC`, the melting point lay in the range of 198 to 201 °C.

Take `NC(=O)CCN1CCC(C(O)(c2ccc(F)cc2)c2ccc(F)cc2)CC1`: the melting point fell in the range of 136 to 137 °C.

For `CN1CCC(=C2c3ccccc3CCn3cc(-c4ccccc4)nc32)CC1`, the melting point came out at 172 °C.

For `CCC(Oc1ccc(F)cc1)C(=O)OC1CC(O)C=C2C=CC(C)C(CCC3CC(O)CC(=O)O3)C21` (mixture of isomers), the melting point was in the range of 149 to 150 °C.

`CS(=O)(=O)c1ccc(C(=O)c2cc(-c3ccccc3)c(N3CCOCC3)s2)cc1` registered a melting point of 175 °C.

Regarding `CCCc1nn(-c2ccc(C(F)(F)F)cn2)cc1CCCOc1c(CC(=O)O)cnn1CC`, the melting point fell in the range of 125 to 126 °C.

`COc1nc(N)nc(-c2ccccc2)c1-c1ccc(=O)n(C)n1` had a melting point of 218 to 220 °C.

For the molecule `Cc1c2ccc(-c3nn(C(C)c4oc5ccccc5c(=O)c4-c4cccc(F)c4)c4ncnc(N)c34)cc2nn1C` (configuration not stated), the melting point was in the range of 269 to 274 °C.

Turning to `CCOP(C)(=O)c1cc(Cl)ccc1Cl` (configuration not stated), the melting point is 90 to 91 °C.

`COc1cc2c(cc1OS(=O)(=O)C(F)(F)F)[nH]c1cc(-c3ccccc3Cl)c3c(c12)C(=O)NC3=O` showed a melting point of 248 to 252 °C.

In turn, `CCn1c(C(C)NS(=O)(=O)c2ccc(Cl)c(Cl)c2)cnc1Oc1ccc(Cl)cc1` (configuration not stated) returned a melting point of 153 to 157 °C.

On to `O=C(O)CCCC/C=C(\c1ccc(-c2nc(C(=O)N[C@@H]3C[C@H]3c3ccccc3)co2)cc1)c1cccnc1`, for which the melting point is 78 to 87 °C.

In turn, `CC(=O)c1cc(F)c(N)c(C#N)c1F` gave a melting point of 182 to 184 °C.

Take `OC/C=C/c1ccc(Cc2cccnc2)cc1`: the melting point lay in the range of 81 to 82 °C.

The molecule `Cc1cccc(-c2ccc(Cl)nn2)c1` showed a melting point of 112 to 113 °C.

`COc1ccc(NC2(C(N)=O)CCOCC2)cc1`: the melting point was in the range of 141 to 143 °C.

`CC1(c2ccc(S(N)(=O)=O)cc2)Cc2cc(OCC(=O)O)c(Cl)c(Cl)c2C1=O` (configuration not stated) came in with a melting point of 258 to 260 °C.

In the case of `Cc1ccc(Cc2cnc(NCCCCc3ncc(I)cc3C)[nH]c2=O)cn1`, the melting point is 160 to 162 °C.

The molecule `COC(=O)C(C)(C)Oc1ccc2c(=O)n(CC(C)C)c(CNC(=O)OC(C)(C)C)c(-c3ccccc3)c2c1` returned a melting point of 207 to 209 °C.

Molecule `CCOc1ccc(-c2nc(=O)c3ccccc3s2)cn1` showed a melting point of 152 to 156 °C.

`CN1CCN(Cc2ccc3c(=O)n(CCCCN4CC=C(c5ccccc5)CC4)c(=O)[nH]c3c2)CC1` displayed a melting point of 167 to 168 °C.

The molecule `Clc1nnc(Cc2ccncc2)c2ccccc12` came in with a melting point of 116 to 119 °C.

In turn, `CC(C)(C)OC(=O)c1cccc(C#N)n1` returned a melting point of 156 to 157 °C.

Turning to `CC1=CC(O)C(OC(=O)c2ccc(N)cc2N)C(C)(C)CC1=O` (configuration not stated), the melting point fell in the range of 185 to 186 °C.

In the case of `O=[N+]([O-])c1cnc(Sc2cnccn2)s1`, the melting point lay in the range of 129 to 130 °C.

For the molecule `CC(C)Oc1cc(-n2c(=O)c(F)c(C(F)(F)C(F)(F)F)n(C)c2=O)c(F)cc1Cl`, the melting point fell in the range of 107 to 109 °C.

`Cc1cnc2sc(SCc3ccccc3)nn2c1=O` gave a melting point of 130 to 132 °C.

`CN1CCC(N(C)c2nc(Nc3ccc(O)c(Cl)c3)nc(NC3CCCCCC3)n2)CC1` returned a melting point of 68 °C.

`Cc1cc(C(=O)NCc2cccc3c2C(=O)N(C2CCC(=O)NC2=O)C3=O)no1` (configuration not stated) registered a melting point of 207 to 209 °C.

Consider `COC(=O)c1ccc(C#CC(O)c2ccc3c(c2)C(C)(C)CCC3(C)C)cc1O` (configuration not stated), for which the melting point lay in the range of 92 to 93 °C.

For the molecule `COc1ccccc1Oc1ccc([N+](=O)[O-])cc1C(=O)O`, the melting point is 162 to 165 °C.
